Laboratory results as given in patent US20250213614A1, “Modified RELA Protein for Inducing Interferon Expression and Engineered Immune Cells with Improved Interferon Expression” (Institut Curie, priority 2022, published 2025).

Tests used:
Assay type in all cases: cell-based, human
[1] = test system: CD4+ T cells; test: IFN-I/III quantification (LEGENDplex) in CD4+ T cells, baseline or after STING stimulation; settings: for IFNλ1 response to cGAMP under epigenetic inhibitor: CD4+ T cells, TSA 100 nM or 5AZA 2 μM, FIG. 3D; for IFN-I/III: over-expression of cGAS or NLS-cGAS in CD4+ T cells, data not shown
Method: (§1) Plasmapheresis blood pockets were obtained from healthy adult volunteers after informed consent from the EFS (Establishment of French blood collection). Peripheral blood mononuclear cells (PBMCs) were isolated using Ficoll-Paque Plus (GE-17144003) and left overnight at 4° C. in RPMI (Thermo fischer #61870-010) with 10% heat-decomplemented fetal bovine serum (FBS, Eurobio #CVFSVFO0-01). CD14+ cells were enriched by positive selection (Miltenyi #130-050-201), the CD14 negative fraction was subsequently used to isolate total CD4+ T cells by negative selection (Stem Cell #17952). CD14+ cells were cultured in RPMI containing 10% FBS, 5% Penicillin-Streptomycin (PS, Thermo Fisher #10378-016), 50 μg/ml Gentamicin (Thermo Fisher #15750-045) and 10 mM HEPES (Thermo Fisher #15630-056). CD14+ cells were differentiated ex vivo into MDDC by supplementing the culture media with 50 ng/ml IL-4 (Miltenyi #130-093-922) and 10 ng/ml GM-CSF (Miltenyi #130-093-867). MDDC were used for experiments 3 or 4 days following the start of the culture. CD14+ cells were differentiated ex vivo into macrophages by adding 50 ng/ml MCSF (Miltenyi #130-096-492) to the culture media containing RPMI with 1% PS, 5% FBS and 5% human serum (Sigma #H4522). MDM were used 7 days following culture. Freshly isolated CD4+ T cells were cultured in X-VIVO 15 (Lonza #BE02-060F) and activated using anti-CD3 and anti-CD28 Dynabeads (fisher scientific #10548353) at the ratio of 1:5 (bead:cell). 100 U/ml human IL-2 (Immunotools #11340027) was added to cultures 2 days following TCR stimulation and media with IL-2 was replenished every 48 hours. To assess proliferation, freshly isolated CD4+ T cells were stained with cell proliferation dye (thermo fischer #65-0840-85) prior to TCR stimulation.
(§2) CD14+ cells were plated at 1 million cells/ml and transduced with equal volumes of freshly harvested SIV-VLPs and pTRIP-SFFV vectors in the presence of 8 μg/ml protamine (Sigma #P4020). CD4+ T cells were transduced with lentivectors 24 hours post-TCR stimulation in 100 μl of cells (0.2 million cells) and 100 μl of freshly harvested lentivirus in the presence of 8 μg/ml protamine. T cells were spinoculated at 1200 g for 2 hours at 25° C. 0.5 million THP-1 cells in 500 μl media (RPMI 10% FBS 1% PS) were transduced with 500 μl freshly harvested lentivirus in the presence of 8 μg/ml protamine. 1 μg/ml Puromycin (Invivogen #ant-pr-1) was added 2 days post-transduction when cells were transduced with pLKO.1-puro plasmid.
For stimulation of STING by extracellular ligands, 2.5 μg of ADUS100 (invivogen #tlrl-nacda2r-01) or 2′3′-cGAMP (cGAMP, invivogen #tlrl-nacga23-02) was added to 100,000 cells in 100 μl media either on freshly isolated primary cells or 3-4 days post differentiation for MDDC and 3 days post-TCR stimulation for CD4+ T cells. Cells and supernatant were harvested 18-24 hours post stimulation. For delivery of STING ligands after permeabilization, T cells were used 3 or 4 days post TCR stimulation and MDDC were used 3-4 days following differentiation. 150,000 cells were plated in round bottom 96-well plate. Media was removed by centrifugation and 20 μl 2× permeabilization buffer (100 mM HEPES, 200 mM KCl, 6 mM MgCl2, 0.2 mM DTT, 170 mM Sucrose, 2 mM ATP, 2 mM GTP, 0.4% bovine serum albumin (BSA), 20 μg/ml digitonin) and 20 μl cGAMP (12 μg/ml) was added to cells. 18 to 20 hours following stimulation supernatants and cells were harvested. Cells were stained with a fixable viability dye (Invitrogen #65-0865-14) and acquired on a FACSVerse (BD). […]
Where indicated, cells were treated with 5-Azacytidine (5AZA, Sigma #A2385) 48 hours prior to cGAMP stimulation. Fresh 5AZA was added daily to cells, and media was replenished with 5AZA following cGAMP stimulation. 100 nM Trichostatin A (TSA) (sigma #T1952) was added to cells following cGAMP stimulation and left overnight. […]

[2] = test system: STING, TBK1, IRF3, RELA, IRF7; test: Western blot of key signaling proteins involved in STING signaling; settings: for cGAMP-mediated STING signaling: CD4+ T cells treated with TSA or 5AZA, FIG. 3E
Method: 0.5 million cells were lysed for 30 minutes on ice in 50 μl RIPA buffer (50 mM Tris HCl, 150 mM NaCl, 0.1% SDS, 0.5% DOC, 1% NP-40) with Protease inhibitor (Roche #1187358001). To evaluate, phospho-proteins 50 mM NaF and 1 mM sodium orthovanadate were added to the lysis buffer. Protein lysates were cleared by centrifugation at 12,000 g for 10 to 12 minutes at 4° C. 10 μl of 6× Laemmli buffer (fisher scientific #J61337) was added to 50 μl protein lysates and samples were boiled at 95° C. for 15 minutes. Protein samples were resolved on 4%-20% Biorad precast SDS-PAGE gels (#5671125) and transferred onto PVDF membranes (BioRad #1704157). Membranes were blocked in 5% non-fat dry milk in PBS 0.1% tween or in TBS 5% BSA 0.1% Tween to detect phosphorylated proteins. Primary antibodies were used at 1:1000:phospho-STING (clone-D7C3S), STING (clone-D2P2F), serine 172 phospho-TBK1 (clone-D52C2), TBK1 (clone-D11B4), serine 396 phospho IRF3 (clone-D6O1M), IRF3 (clone-D83B9), RELA (clone-C22B4), IRF7 (clone-12G9A36), cGAS (clone-D1 D3G), Actin (clone-C4), Sendai viral proteins (Biozol #MBL-PD029). Secondary anti-rabbit or anti-mouse antibody were used at 1:10,000 (santa cruz #sc-2357, #sc-516102). ECL signal (Biorad #1705061 and #1705062) was recorded on a ChemiDoc Touch Biorad Imager. Data was analyzed and quantified with Image Lab software (Biorad). In figures, dotted lines indicate reordering of lanes from a single original membrane for visualization purpose.

[3] = test system: MDDC; test: IFN-I/III quantification (LEGENDplex) in MDDC after STING stimulation
Method: as §1, §2
For stimulation of STING by extracellular ligands, 2.5 μg of ADUS100 (invivogen #tlrl-nacda2r-01) or 2′3′-cGAMP (cGAMP, invivogen #tlrl-nacga23-02) was added to 100,000 cells in 100 μl media either on freshly isolated primary cells or 3-4 days post differentiation for MDDC and 3 days post-TCR stimulation for CD4+ T cells. Cells and supernatant were harvested 18-24 hours post stimulation. For delivery of STING ligands after permeabilization, T cells were used 3 or 4 days post TCR stimulation and MDDC were used 3-4 days following differentiation. 150,000 cells were plated in round bottom 96-well plate. Media was removed by centrifugation and 20 μl 2× permeabilization buffer (100 mM HEPES, 200 mM KCl, 6 mM MgCl2, 0.2 mM DTT, 170 mM Sucrose, 2 mM ATP, 2 mM GTP, 0.4% bovine serum albumin (BSA), 20 μg/ml digitonin) and 20 μl cGAMP (12 μg/ml) was added to cells. 18 to 20 hours following stimulation supernatants and cells were harvested. Cells were stained with a fixable viability dye (Invitrogen #65-0865-14) and acquired on a FACSVerse (BD).
For experiments with conditioned media, CD4+ T cell- and MDDC-conditioned media refer to […] filtered conditioned media from cultures of activated CD4+ T cell and MDDC, respectively. CD4+ T cells were pretreated with 100 μl of MDDC-conditioned media or of fresh MDDC culture media, 24 hours prior to cGAMP stimulation. […]

[4] = TCR-activated CD4+ T cells, ADU-S100 2.5 μg, FIG. 1D

Molecule: shRNA 1: pLKO.1-puro-IRF7sh1, shRNA against IRF7, CCCGAGCTGCACGTTCCTATA [reference compound]
- induction of IFNα2 by cGAMP stimulation ([1]; CD4+ T cells expressing only RELA K5R, IRF7 knock-down, FIG. 4C): abolished
- IRF7 expression (knock-down) ([2]; CD4+ T cells treated with IFNα2a 1000 U/ml, FIG. 4B): more potent

Molecule: Nc1ncn([C@@H]2O[C@H](CO)[C@@H](O)[C@H]2O)c(=O)n1 [5AZA, 5-Azacytidine, reference compound]
- IFNλ1 response to cGAMP under epigenetic inhibitor [1]: enhanced the IFNλ1 response to cGAMP
- cGAMP-mediated STING signaling [2]: did not occur through detectable increase

Molecule: Nc1ncnc2c1ncn2[C@@H]1O[C@@H]2COP(=O)([S-])O[C@@H]3[C@H](O)[C@@H](COP([O-])(=S)O[C@H]2[C@H]1O)O[C@H]3n1cnc2c(N)ncnc21.[Na+].[Na+] (stereo partly drawn) [ADU-S100, reference compound]
- IFN-I induction [1, 4]: no detectable IFN-I
- IFN-III induction [1, 4]: induced IFN-III
- IFN response to STING ligands ([1]; resting blood CD4+ T cells, soluble ligand 1 μg or 2.5 μg, FIG. 1B): undetectable
- IFNλ1 produced by donor-matched MDDC, more than TCR-activated CD4+ T cells ([3]; ADU-S100 2.5 μg, FIG. 1D): 10 fold
- IFNβ production ([3]; donor-matched MDDC, ADU-S100 2.5 μg, FIG. 1D): high levels

Molecule: CC(/C=C/C(=O)NO)=C\[C@@H](C)C(=O)c1ccc(N(C)C)cc1 [TSA, Trichostatin A, reference compound]
- IFN expression at baseline with RELA K5R and after cGAMP stimulation ([1]; CD4+ T cells treated with TSA): inhibits IFN expression
- IFNλ1 response to cGAMP under epigenetic inhibitor [1]: reduced the already low IFNλ1 production
- cGAMP-mediated STING signaling [2]: intact

Molecule: IFNγ: recombinant type II interferon, 10 ng/ml
- IFN-I/III response to cGAMP ([3]; MDDC treated with recombinant IFNγ 10 ng/ml 24 hours before cGAMP, FIG. 1H): sufficient to enhance

B1: cGAS: pTRIP-SFFV-EGFP-FLAG-cGAS over-expression (protein, UniProt Q8N884 1-522, looked up)
Cyclic GMP-AMP synthase: MQPWHGKAMQRASEAGATAPKASARNARGAPMDPTESPAAPEAALPKAGKFGPARKSGSRQKKSAPDTQERPPVRATGARAKKAPQRAQDTQPSDATSAPGAEGLEPPAAREPALSRAGSCRQRGARCSTKPRPPPGPWDVPSPGLPVSAPILVRRDAAPGASKLRAVLEKLKLSRDDISTAAGMVKGVVDHLLLRLKCDSAFRGVGLLNTGSYYEHVKISAPNEFDVMFKLEVPRIQLEEYSNTRAYYFVKFKRNPKENPLSQFLEGEILSASKMLSKFRKIIKEEINDIKDTDVIMKRKRGGSPAVTLLISEKISVDITLALESKSSWPASTQEGLRIQNWLSAKVRKQLRLKPFYLVPKHAKEGNGFQEETWRLSFSHIEKEILNNHGKSKTCCENKEEKCCRKDCLKLMKYLLEQLKERFKDKKHLDKFSSYHVKTAFFHVCTQNPQDSQWDRKDLGLCFDNCVTYFLQCLRTEKLENYFIPEFNLFSSNLIDKRSKEFLTKQIEYERNNEFPVFDEF
modifications: EGFP, FLAG tag
notes: pTRIP-SFFV-EGFP-FLAG-cGAS over-expression
- IFN-I/III [1]: remained undetectable

B2: NLS-cGAS: pTRIP-SFFV-EGFP-NLS-FLAG-cGAS, nuclear localization signal cGAS over-expression (protein, UniProt Q8N884 1-522, looked up)
Cyclic GMP-AMP synthase: B1 Cyclic GMP-AMP synthase
modifications: EGFP, NLS, FLAG tag
notes: pTRIP-SFFV-EGFP-NLS-FLAG-cGAS, nuclear localization signal cGAS over-expression
- IFN-I/III [1]: remained undetectable

B3: RELA K310R: RELA with lysine 310 substituted for arginine, expressed from lentivector (protein)
chain: MDELFPLIFPAEPAQASGPYVEIIEQPKQRGMRFRYKCEGRSAGSIPGERSTDTTKTHPTIKINGYTGPGTVRISLVTKDPPHRPHPHELVGKDCRDGFYEAELCPDRCIHSFQNLGIQCVRRRDLEQAISQRIQTNNNPFQVPIEEQRGDYDLNAVRLCFQVTVRDPSGRPLRLPPVLSHPIFDNRAPNTAELKICRVNRNSGSCLGGDEIFLLCDKVQKEDIEVYFTGPGWEARGSFSQADVHRQVAIVFRTPPYADPSLQAPVRVSMQLRRPSDRELSEPMEFQYLPDTDDRHRIEEKRKRTYETFRSIMRRSPFSGPTDPRPPPRRIAVPSRSSASVPKPAPQPYPFTSSLSTINYDEFPTMVFPSGQISQASALAPAPPQVLPQAPAPAPAPAMVSALAQAPAPVPVLAPGPPQAVAPPAPKPTQAGEGTLSEALLQLQFDDEDLGALLGNSTDPAVFTDLASVDNSEFQQLLNQGIPVAPHTTEPMLMEYPEAITRLVTGAQRPPDPAPAPLGAPGLPNGLLSGDEDFSSIADMDFSALLSQISS
- IFNλ1 after cGAMP stimulation ([1]; lentivector overexpression in CD4+ T cells, FIG. 2B, 2D, 2F): augmented in the presence of cGAMP
- IFNα2 in response to cGAMP ([1]; lentivector overexpression in CD4+ T cells, FIG. 2D, 2F): detected
- baseline IFNλ1 expression ([1]; lentivector overexpression in CD4+ T cells, no cGAMP, FIG. 2D, 2F): increased baseline IFNλ1 similar to RELA K5R
